Values quoted from earlier work as cited in patent publication US20160186266A1, “MOLECULAR PROFILING FOR PERSONALIZED MEDICINE” (CARIS LIFE SCIENCES, INC., priority 2009, published 2016).

Experiments:
[1] = tested on: platelet-derived growth factor receptor (PDGFR)
c-Kit = c-Kit (Homo sapiens, UniProt P10721)
Sequence of c-Kit (P10721 26-976): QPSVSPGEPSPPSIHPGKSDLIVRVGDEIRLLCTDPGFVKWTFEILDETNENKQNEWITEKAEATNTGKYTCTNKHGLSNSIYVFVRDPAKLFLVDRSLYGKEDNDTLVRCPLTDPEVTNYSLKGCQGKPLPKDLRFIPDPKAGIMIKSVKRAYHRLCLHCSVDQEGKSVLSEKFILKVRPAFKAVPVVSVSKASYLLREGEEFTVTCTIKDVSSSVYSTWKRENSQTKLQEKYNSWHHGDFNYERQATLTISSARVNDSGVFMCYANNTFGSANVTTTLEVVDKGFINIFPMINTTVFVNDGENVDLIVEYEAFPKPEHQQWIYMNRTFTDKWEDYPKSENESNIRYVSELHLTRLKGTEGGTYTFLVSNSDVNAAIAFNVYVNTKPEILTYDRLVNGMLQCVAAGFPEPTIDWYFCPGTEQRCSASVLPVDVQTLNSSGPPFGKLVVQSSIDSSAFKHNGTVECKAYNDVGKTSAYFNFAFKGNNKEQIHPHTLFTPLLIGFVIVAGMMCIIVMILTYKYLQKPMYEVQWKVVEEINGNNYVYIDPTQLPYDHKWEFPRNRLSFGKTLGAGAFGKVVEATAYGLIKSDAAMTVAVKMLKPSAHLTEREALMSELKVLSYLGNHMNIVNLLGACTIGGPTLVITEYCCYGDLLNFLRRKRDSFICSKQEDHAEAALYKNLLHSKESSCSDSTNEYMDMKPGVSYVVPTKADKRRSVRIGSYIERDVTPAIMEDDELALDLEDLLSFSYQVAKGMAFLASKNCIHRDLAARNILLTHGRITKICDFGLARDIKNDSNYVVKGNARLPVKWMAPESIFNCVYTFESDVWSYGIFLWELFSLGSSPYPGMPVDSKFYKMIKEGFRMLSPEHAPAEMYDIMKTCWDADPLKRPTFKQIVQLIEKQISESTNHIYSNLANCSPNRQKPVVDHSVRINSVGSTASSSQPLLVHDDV

effect on kinase activity (c-Kit): block the activity
SMILES: Cc1ccc(NC(=O)c2ccc(CN3CCN(C)CC3)cc2)cc1Nc1nccc(-c2cccnc2)n1 [Imatinib]
effect on kinase activity [1]: block the activity
